Tests used:
[1] = target: T1, ATP-binding cassette sub-family C member 2 (Homo sapiens, UniProt Q92887); assay: TP_TRANSPORTER: Immunohistochemistry in vivo, apical membrane of enterocytes; assay type: functional, organism-based, Enterocyte apical membrane
[2] = target: T1, ATP-binding cassette sub-family C member 2; assay: TP_TRANSPORTER: Northern blot in vivo, apical membrane of enterocyte; assay type: functional, organism-based

T1 sequence (Q92887 whole entry): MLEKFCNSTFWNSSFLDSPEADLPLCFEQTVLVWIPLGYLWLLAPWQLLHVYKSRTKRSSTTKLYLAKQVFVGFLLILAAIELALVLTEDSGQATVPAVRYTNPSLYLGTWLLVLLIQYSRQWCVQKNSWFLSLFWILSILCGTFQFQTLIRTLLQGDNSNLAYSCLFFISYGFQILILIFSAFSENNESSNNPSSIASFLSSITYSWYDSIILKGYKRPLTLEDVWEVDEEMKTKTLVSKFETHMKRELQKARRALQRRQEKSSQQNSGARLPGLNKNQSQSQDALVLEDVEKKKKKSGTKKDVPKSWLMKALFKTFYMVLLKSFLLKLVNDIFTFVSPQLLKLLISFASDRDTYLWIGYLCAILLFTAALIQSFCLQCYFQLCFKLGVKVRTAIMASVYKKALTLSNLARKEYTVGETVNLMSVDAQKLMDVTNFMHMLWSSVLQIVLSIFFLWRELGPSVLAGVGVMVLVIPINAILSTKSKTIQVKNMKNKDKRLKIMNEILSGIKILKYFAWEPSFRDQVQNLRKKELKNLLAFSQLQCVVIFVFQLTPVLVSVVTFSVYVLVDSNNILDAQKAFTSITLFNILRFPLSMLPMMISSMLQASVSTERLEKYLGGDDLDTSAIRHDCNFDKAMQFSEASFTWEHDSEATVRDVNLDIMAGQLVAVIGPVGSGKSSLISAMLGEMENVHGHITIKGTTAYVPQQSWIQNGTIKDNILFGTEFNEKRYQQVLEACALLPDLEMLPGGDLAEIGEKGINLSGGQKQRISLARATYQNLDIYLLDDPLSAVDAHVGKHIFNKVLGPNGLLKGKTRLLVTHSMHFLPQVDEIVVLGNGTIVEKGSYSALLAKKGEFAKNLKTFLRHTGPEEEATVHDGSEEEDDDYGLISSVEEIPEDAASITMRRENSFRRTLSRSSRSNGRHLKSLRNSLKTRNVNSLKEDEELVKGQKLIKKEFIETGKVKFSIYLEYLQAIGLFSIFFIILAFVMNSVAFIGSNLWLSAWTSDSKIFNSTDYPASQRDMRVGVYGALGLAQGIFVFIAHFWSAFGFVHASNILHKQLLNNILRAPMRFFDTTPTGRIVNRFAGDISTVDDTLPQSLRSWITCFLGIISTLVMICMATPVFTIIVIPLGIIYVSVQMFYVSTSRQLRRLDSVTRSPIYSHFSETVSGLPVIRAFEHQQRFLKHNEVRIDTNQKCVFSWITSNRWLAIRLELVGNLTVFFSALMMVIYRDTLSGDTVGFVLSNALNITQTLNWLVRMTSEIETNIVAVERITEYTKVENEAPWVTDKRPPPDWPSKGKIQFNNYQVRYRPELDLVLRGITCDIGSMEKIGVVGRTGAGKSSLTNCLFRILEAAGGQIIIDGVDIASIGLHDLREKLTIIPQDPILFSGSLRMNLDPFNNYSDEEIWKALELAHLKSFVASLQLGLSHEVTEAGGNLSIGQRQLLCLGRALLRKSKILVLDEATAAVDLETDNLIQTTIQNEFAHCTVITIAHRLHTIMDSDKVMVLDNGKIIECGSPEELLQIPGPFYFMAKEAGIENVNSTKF

Activity [1]: inducer [+]
Activity [2]: inducer [+]
SMILES: CO[C@H]1/C=C/O[C@@]2(C)Oc3c(C)c(O)c4c(O)c(c(/C=N/N5CCN(C)CC5)c(O)c4c3C2=O)NC(=O)/C(C)=C\C=C\[C@H](C)[C@H](O)[C@@H](C)[C@@H](O)[C@@H](C)[C@H](OC(C)=O)[C@@H]1C [RIFAMPIN]

— ChEMBL document CHEMBL2073908, “The effect of rifampin treatment on intestinal expression of human MRP transporters” (Am J Pathol, 2000)
